Usually Ki stands for the dissociation constant of the complex between target and ligand, obtained from inhibition or displacement.

Where only a bound is given, the exact number is not on record here.

Test [1] deals with T1, α2C receptor (Homo sapiens, UniProt P18825).
T1 sequence (P18825 1-462): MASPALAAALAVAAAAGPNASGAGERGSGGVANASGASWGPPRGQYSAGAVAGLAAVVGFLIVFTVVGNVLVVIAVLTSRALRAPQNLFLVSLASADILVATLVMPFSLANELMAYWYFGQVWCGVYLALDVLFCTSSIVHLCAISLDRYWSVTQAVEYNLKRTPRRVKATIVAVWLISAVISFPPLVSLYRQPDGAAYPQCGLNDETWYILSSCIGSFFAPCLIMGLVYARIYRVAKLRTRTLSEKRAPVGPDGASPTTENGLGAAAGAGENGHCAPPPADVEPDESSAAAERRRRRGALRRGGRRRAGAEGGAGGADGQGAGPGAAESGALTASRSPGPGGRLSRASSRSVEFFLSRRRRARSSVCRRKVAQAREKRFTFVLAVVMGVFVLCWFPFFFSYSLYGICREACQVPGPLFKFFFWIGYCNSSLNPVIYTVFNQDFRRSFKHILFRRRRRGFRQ
Nature of the test: GTPγS assay, efficacy agonist activity (Emax) at α2C. The class given is biochemical. The conditions noted are these: for evaluated as antagonist of the α2C receptor subtype: by definition: efficacy at α2C <30% Emax (GTPγS assay) and Ki <500 nM; for evaluated as agonist of the α2C receptor subtype: by definition: efficacy at α2C 30% Emax (GTPγS assay), functionally selective if efficacy at α2A ≦35% Emax. Here is the method: Efficacy agonist activity values (Emax, GTPγS assay) for α2A and α2C were determined by following the general procedure detailed by Umland et. al (“Receptor reserve analysis of the human α2c-adrenoceptor using [^35S]GTPγS and cAMP functional assays” European Journal of Pharmacology 2001, 411, 211-221). For the purposes of the present invention, a compound is defined to be a specific or at least functionally selective agonist of the α2C receptor subtype if the compound's efficacy at the α2C receptor is […] (GTPγS assay) and its efficacy at the α2A receptor is ≦35% Emax (GTPγS assay). Additionally, for the purposes of this invention, a compound is defined to be an antagonist of the α2C receptor subtype if the compound's efficacy at the α2C receptor is <30% Emax (GTPγS assay) and the Ki at the α2C receptor subtype was <500 nM, preferentially <200 nM, and most preferentially <20 nM.

Test [2] concerns the target T1, α2C receptor. Nature of the test: binding inhibition at the α2C receptor (Ki). Particulars: compounds classed as α2C antagonists; read-out: Ki at the α2C receptor subtype.

In the case of `Cc1noc(C)c1-c1ccc2c(c1)[C@@H]1[C@H](CO2)[C@H]1c1c[nH]cn1` (racemic) [(±)-2d], the “evaluated as antagonist of the α2C receptor subtype” value (from here on “evaluated as antagonist”) on α2C receptor [1] was “antagonist”. Further, the Ki at α2C receptor [2] is less than 200 nM.
`Cc1n[nH]c(C)c1-c1ccc2c(c1)[C@@H]1[C@H](CO2)[C@H]1c1c[nH]cn1` (racemic) [(±)-2C]: on α2C receptor [1], the “evaluated as agonist of the α2C receptor subtype” value (“evaluated as agonist” for short) was “active or functionally selective agonists”.
With `Cn1nccc1-c1ccc2c(c1)[C@@H]1[C@H](CO2)[C@H]1c1c[nH]cn1` (racemic) [(±)-2A], the “evaluated as agonist” value on α2C receptor [1] is given as “active or functionally selective agonists”.
Still for that read-out and setting: the same measure for `COC(=O)N(C)c1ccc2c(c1)[C@@H]1[C@H](CO2)[C@H]1c1c[nH]cn1` (racemic) [(±)-102]: “active or functionally selective agonists”.
For `c1ncc(-c2ccc3c(c2)[C@@H]2[C@H](CO3)[C@H]2c2c[nH]cn2)cn1` (racemic) [(±)-2], the “evaluated as antagonist” value at α2C receptor [1] was “antagonist”. Further, the Ki at α2C receptor [2] is less than 200 nM.
On to `COCC(=O)N(C)c1ccc2c(c1)[C@@H]1[C@H](CO2)[C@H]1c1c[nH]cn1` (racemic) [(±)-5], for which, on α2C receptor [1], the “evaluated as agonist” value was “active or functionally selective agonists”.
Turning to `CCN(C(=O)OC)c1ccc2c(c1)[C@@H]1[C@H](CO2)[C@H]1c1c[nH]cn1` (racemic) [(±)-4], the “evaluated as agonist” value at α2C receptor [1] was “active or functionally selective agonists”.
As for `c1nc([C@@H]2[C@H]3COc4ccc(-c5cn[nH]c5)cc4[C@H]32)c[nH]1` (racemic) [(±)-2e], the “evaluated as antagonist” value at α2C receptor [1] is “antagonist”. The Ki at α2C receptor [2] is less than 200 nM.
Take `Cc1nn(C)c(C)c1-c1ccc2c(c1)[C@@H]1[C@H](CO2)[C@H]1c1c[nH]cn1` (racemic) [(±)-2f]: the “evaluated as antagonist” value on α2C receptor [1] is on record as “antagonist”. Further, on α2C receptor [2], the Ki was less than 200 nM.
In the case of `CNC(=O)N(C)c1ccc2c(c1)[C@@H]1[C@H](CO2)[C@H]1c1c[nH]cn1` (racemic) [(±)-101], at α2C receptor [1], the “evaluated as agonist” value is “active or functionally selective agonists”.
With `CNc1ncncc1-c1ccc2c(c1)[C@@H]1[C@H](CO2)[C@H]1c1c[nH]cn1` (racemic) [(±)-7], the “evaluated as antagonist” value on α2C receptor [1] is reported as “antagonist”. Further, at α2C receptor [2], the Ki is less than 200 nM.
In the case of `CNc1ncnc(C)c1-c1ccc2c(c1)[C@@H]1[C@H](CO2)[C@H]1c1c[nH]cn1` (racemic) [(±)-8], the “evaluated as agonist” value on α2C receptor [1] is listed as “active or functionally selective agonists”.
`CCN(C(=O)COC)c1ccc2c(c1)[C@@H]1[C@H](CO2)[C@H]1c1c[nH]cn1` (racemic) [(±)-100]: the “evaluated as antagonist” value at α2C receptor [1] is “antagonist”. Moreover, the Ki at α2C receptor [2] was less than 200 nM.
With `CCN(C(=O)NC)c1ccc2c(c1)[C@@H]1[C@H](CO2)[C@H]1c1c[nH]cn1` (racemic) [(±)-3], the “evaluated as agonist” value on α2C receptor [1] is given as “active or functionally selective agonists”.

Source of the values: US20110190247A1, “CYCLOPROPYLCHROMENE DERIVATIVES AS MODULATORS OF THE ALPHA-2C RECEPTOR” (Schering Corporation, priority 2008, published 2011).
